This note sets out measurements from PubChem BioAssay AID1794801 (Yongcheng Song lab at Baylor College of Medicine, 2022).

Molecules are shown by their SMILES. Activity calls are given as the source filed them.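 The calls were made as follows: active = compounds that disrupt AF9 binding to the DOT1L peptide with an IC50 under 30 µM; inactive = the rest.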 Bounds are passed on as bounds.

Chain of Protein AF-9 (Homo sapiens) (P42568 whole entry, looked up): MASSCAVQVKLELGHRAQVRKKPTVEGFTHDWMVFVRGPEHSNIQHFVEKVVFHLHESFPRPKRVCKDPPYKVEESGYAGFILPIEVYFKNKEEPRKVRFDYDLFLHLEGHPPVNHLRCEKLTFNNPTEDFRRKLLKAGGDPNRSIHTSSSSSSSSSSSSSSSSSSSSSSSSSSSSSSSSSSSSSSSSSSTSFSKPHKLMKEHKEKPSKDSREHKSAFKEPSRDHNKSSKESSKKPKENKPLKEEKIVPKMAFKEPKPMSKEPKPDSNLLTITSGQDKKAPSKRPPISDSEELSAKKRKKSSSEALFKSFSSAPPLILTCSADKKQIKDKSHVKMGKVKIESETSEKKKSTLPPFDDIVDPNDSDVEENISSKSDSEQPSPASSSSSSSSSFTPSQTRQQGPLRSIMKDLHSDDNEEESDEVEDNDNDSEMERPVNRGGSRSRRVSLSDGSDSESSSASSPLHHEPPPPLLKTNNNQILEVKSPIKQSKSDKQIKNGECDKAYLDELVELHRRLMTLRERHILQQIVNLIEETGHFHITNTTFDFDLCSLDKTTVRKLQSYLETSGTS

This test addresses Protein AF-9 (Homo sapiens) (UniProt P42568). Put plainly: inhibitors of AF9 AHD–DOT1L interaction, dose response, biochemical, AlphaLISA, MBP-tagged AHD, biotinylated peptide (AID 1794801). To be noted: MBP-AF9 AHD and biotin-DOT1L peptide.
On to `O=C(NCC1CCNCC1)c1c[nH]c2cc(-c3ccc(N4CCCC4)cc3)ccc12`, for which the IC50 is 2.9 µM.

For the compound `O=C(NCC1CCNCC1)c1cc2cc(-c3ccc(N4CCCCC4)cc3)ccc2s1`, the IC50 is 2.5 µM.

For `O=C(NCC1CCNCC1)c1cc2ccc(Nc3ccc(N4CCCCC4)cc3)cc2s1`, the IC50 was 2.3 µM.

On to `O=C(NCC1CCNCC1)c1c[nH]c2cc(-c3ccc(N4CCCCC4)cc3)ccc12`, for which the IC50 is 4.5 µM.

For `O=C(NCC1CCNCC1)c1cc2ccc(-c3ccc(N4CCCCC4)cc3)cc2s1`, the IC50 was 1.6 µM.

For `O=C(NCC1CCNCC1)c1cc2cc(-c3cn[nH]c3)ccc2[nH]1`, the IC50 was > 30 µM (inactive).

`O=C(NCC1CCNCC1)c1cc2ccc(-c3ccc(N4CCCC4)cc3)cc2[nH]1`: the IC50 is 2.8 µM.

As for `O=C(NCC1CCNCC1)c1cc2cc(-c3ccc(N4CCCCC4)cc3)ccc2[nH]1`, the IC50 is 3.6 µM.

`O=C(NCC1CCNCC1)c1cc2cc(-c3ccc(N4CCCC4)cc3)ccc2[nH]1`: the IC50 is 2.7 µM.

As for `NCc1ccc(-c2ccc3cc(C(=O)NCC4CCNCC4)oc3c2)cc1`, the IC50 is > 30 µM (inactive).

With `O=C(NCC1CCNCC1)c1cc2ccc(-c3ccc(N4CCCC4)cc3)cc2s1`, the IC50 was 5.3 µM.

Regarding `O=C(NCC1CCNCC1)c1cc2ccc(-c3ccc(N4CCCCC4)cc3)cc2[nH]1`, the IC50 is 3.3 µM.

Take `O=C(NCC1CCNCC1)c1cc2ccc(Nc3ccc(N4CCCCC4)cc3)cc2o1`: the IC50 was 4.6 µM.
